Experimental data: patent publication US20060111331A1, “Gave10 agonists for treating inflammation” (Aventis Pharmaceuticals Inc., priority 2004, published 2006)

Columns and labels:
Format in all cases: cell-based
GAVE10 [1] = molecular target: T1, GAVE10 (Homo sapiens, UniProt Q8TDU6); assay: FLIPR assay, PSC cells transfected with GAVE10 (calcium signaling); details: PSC cells alone vs PSC cells transfected with GAVE10; FIG. 1
T1 construct: expressed in transfected cells; host or cells: PSC cells
T1 sequence (Q8TDU6 1-330): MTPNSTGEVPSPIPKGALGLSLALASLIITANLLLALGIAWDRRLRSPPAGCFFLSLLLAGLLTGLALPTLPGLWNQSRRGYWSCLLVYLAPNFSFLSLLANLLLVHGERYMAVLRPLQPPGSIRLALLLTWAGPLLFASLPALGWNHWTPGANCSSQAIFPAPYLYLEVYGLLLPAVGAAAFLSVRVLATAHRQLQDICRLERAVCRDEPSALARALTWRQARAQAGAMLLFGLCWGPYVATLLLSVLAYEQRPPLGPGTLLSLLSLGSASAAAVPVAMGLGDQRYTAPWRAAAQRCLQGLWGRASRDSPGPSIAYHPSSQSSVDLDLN
Method: Compounds A, B, and C and lithocholic acid (LCA) were incubated, respectively, with PSC cells alone and PSC cells transfected with GAVE10, and the cells were then assayed in a FLIPR® assay.
To screen for agonists of human GAVE10, hGAVE10 was coupled artificially to a Gq mechanism. Activation of the Gq mechanism stimulates the release of Ca^2+ from sarcoplasmic reticulum vesicles within the cell. The Ca^2+ was released into the cytoplasm where it can be detected using Ca^2+ chelating dyes. A Fluorometric Imaging Plate Reader (i.e., a FLIPR® apparatus, Molecular Devices) was used to monitor any resulting changes in fluorescence. The activity of an agonist was reflected by any increase in fluorescence.
CHO-KI cells expressing hGAVE10 were pre-engineered to express an indiscriminate form of Gq protein (G016). To prepare such cells, Gα16-coupled CHO cells were obtained commercially (Molecular Devices LIVEWARE™ cells, Catalog No. RD-HGAI6) and the protocol in Example 2 followed to facilitate expression of hGAVE10 in those cells. The cells were maintained in log phase of growth at 37° C. and 5% CO2 in F12 Ham's media (Gibco/BRL, Catalog No. 11765-054) containing 10% fetal bovine serum, 100 IU/ml penicillin (Gibco/BRL, Catalog No. 15140-148), 100 μg/ml streptomycin (Catalog No. 15140-148, Gibco/BRL), 400 μg/ml genetecin (G418) (Gibco/BRL, Catalog No. 10131-035) and 200 μg/ml zeocin (Invitrogen, Catalog No. R250-05). […]
The CCD camera (Princeton Instruments) of the FLIPR® II (Molecular Devices) instrument was set at an f-stop of 2.0 and an exposure of 0.4 seconds. […] Changes in fluorescence were measured for 10 seconds prior to compound addition. After the addition of the compound, fluorescence was measured every second for the first minute followed by exposures taken every six seconds for a total experimental analysis time of three minutes. […] The maximum fluorescence changes for the first 80 scans were recorded as a measure of agonist activity and compared to the maximum fluorescence change induced by 10 μM ATP (Sigma A9062).

[2] = tested on: TNFα release in mouse macrophages; assay: TNFα release assay in mouse macrophages; details: FIG. 3
GAVE10 [3] = molecular target: T1, GAVE10; assay: cAMP assay, PSC cells transfected with GAVE10; details: PSC cells alone vs PSC cells transfected with GAVE10; FIG. 2
Method: Compounds A, B, and C and LCA were incubated, respectively, with PSC cells alone and PSC cells transfected with GAVE 10, and the cells were then assayed in a cAMP assay.

[4] = tested on: IL-6 production in mouse macrophages; assay: IL-6 production in mouse macrophages; details: male and female, effect more pronounced in male, FIG. 4

| Structure (SMILES) | activation of calcium-signaling pathways via GAVE10 (FLIPR) (GAVE10 [1]) | inhibition of TNFα release [2] | increase of intracellular cAMP via GAVE10 activation (GAVE10 [3]) | inhibition of IL-6 production [4] |
| --- | --- | --- | --- | --- |
| CC(CCC(=O)NCC[N+](C)(C)C)C1CCC2C3CCC4CC(O)CCC4(C)C3CC(O)C12C (stereo not drawn) [Compound A] | bind to GAVE10 to activate calcium-signaling pathways | inhibited TNFα release | activate GAVE10 to increase intracellular cAMP |  |
| CC(CCC(=O)N1CCN(C)CC1)C1CCC2C3CCC4CC(O)CCC4(C)C3CC(O)C12C (stereo not drawn) [Compound B] | bind to GAVE10 to activate calcium-signaling pathways | inhibited TNFα release | activate GAVE10 to increase intracellular cAMP |  |
| CC(CCC(=O)NCCN1CCOCC1)C1CCC2C3CCC4CC(O)CCC4(C)C3CC(O)C12C (stereo not drawn) [Compound C] | bind to GAVE10 to activate calcium-signaling pathways |  | activate GAVE10 to increase intracellular cAMP |  |
| C[C@H](CCC(=O)O)[C@H]1CC[C@H]2[C@@H]3CC[C@@H]4C[C@H](O)CC[C@]4(C)[C@H]3C[C@H](O)[C@]12C [DCA] |  |  |  | inhibit IL-6 production |
